Here are results for seven molecules from patent US6593374B2, “Tubulin binding ligands and corresponding prodrug constructs” (Baylor University, priority 2000, dated 2003).

One data set deals with tumor vasculature. The settings on record: cited from earlier work.
For data set [1], the system named is purified tubulin. The settings on record: previously described compounds; cited from earlier work.
The conditions of data set [2]: cited from earlier work.
In another data set the test system is human cancer cells. Kind of data set: Cytotoxicity against human cancer cells. Format: cell-based.
A further data set has as its system NCI 60 cell line panel. Briefly: NCI 60 cell line panel. Format: cell-based. As to conditions: Homo sapiens.
Data set [3] relates to T1, purified tubulin.
T1 construct: other: purified bovine brain tubulin 1.5 mg/ml, 15 min preincubati
Kind of data set: Inhibition of tubulin polymerization assay. The data set is classed as biochemical, bovine. The settings on record: for IC50: read-out: IC50, in vitro inhibition of tubulin polymerization, purified bovine brain tubulin 1.5 mg/ml, 15 min preincubation at 37° C., GTP-induced, 350 nm. Here is the method: After the incubation period, the reaction was cooled and GTP was added to induce tubulin polymerization. Polymerization was then monitored in a Gilford spectrophotometer at 350 nm. The final reaction mixtures (0.25 ml) contained 1.5 mg/ml tubulin, 0.6 mg/ml microtubule-associated proteins (MAPs), 0.5 mM GTP, 0.5 mM MgCl2, 4% DMSO and 0.1M 4-morpholineethanesulfonate buffer (MES, pH 6.4).

For a further data set, the system named is KM20L2. Kind of data set: Growth inhibition, human cancer cell line KM20L2 (SRB). Format: cell-based. As to conditions: 48 hours. The procedure:
(§1) Several of the compounds described in this application were evaluated in terms of growth inhibitory activity against several human cancer cell lines, including pancreas, breast, CNS, lung-NSC, colon, and prostate lines. The assay used is described in Monks et al.^32 Briefly, the cell suspensions, diluted according to the particular cell type and the expected target cell density (5,000-40,000 cells per well based on cell growth characteristics), were added by pipet (100 μl) to 96-well microtiter plates. Inoculates were allowed a preincubation time of 24-28 hours at 37° C. for stabilization. Incubation with the inhibitor compounds lasted for 48 hours in 5% CO2 atmosphere and 100% humidity. Determination of cell growth was done by in situ fixation of cells, followed by staining with a protein-binding dye, sulforhodamine B (SRB), which binds to the basic amino acids of cellular macromolecules. The solubilized stain was measured spectrophotometrically.

For the next data set, the system named is SF-295. Kind of data set: Growth inhibition, human cancer cell line SF-295 (SRB). The data set is classed as cell-based. As to conditions: CNS, 48 hours. The procedure: as §1
Another data set relates to DU-145. Briefly: Growth inhibition, human cancer cell line DU-145 (SRB). Format: cell-based. The settings on record: Prostate, 48 hours. Here is the method:
as §1

In a further data set the test system is NCI-H460. Kind of data set: Growth inhibition, human cancer cell line NCI-H460 (SRB). As to conditions: Lung-NSC, 48 hours. The data set is classed as cell-based. Here is the method: as §1
The next data set deals with MHEC. Briefly: In vivo tumor growth control in scid mice after MHEC inoculation. The settings on record: female scid mice, single dose ip 400 mg/kg, one week after MHEC inoculation (1×10^6/mouse). The procedure: Female scid mice were single dose ip administered with CA-4P, and benzo[b]thiophene phosphate prodrug at 400 mg/kg (i.e., MDT of CA-4P) after one week of MHEC inoculation (1×10^6/mouse) (FIG. 20). Studies were carried out through a collaboration with professors Ronald W. Pero and Klaus Edvardsen, University of Lund, Sweden

The next data set relates to BXPC-3. Kind of data set: Growth inhibition, human cancer cell line BXPC-3 (SRB). Format: cell-based. The settings on record: Pancreas-a, 48 hours. Here is the method:
as §1

Another data set deals with MCF-7. Briefly: Growth inhibition, human cancer cell line MCF-7 (SRB). Format: cell-based. As to conditions: 48 hours. The procedure:
as §1

For another data set, the system named is SF-268. Kind of data set: Growth inhibition, human cancer cell line SF-268 (SRB). Format: cell-based. As to conditions: CNS Gliobl, 48 hours. Here is the method:
as §1

The test system of a further data set is P388 leukemia cells. Kind of data set: Cytotoxicity assay with P388 leukemia cells. Format: cell-based.
A further data set has as its system OVCAR-3. Kind of data set: Growth inhibition, human cancer cell line OVCAR-3 (SRB). The data set is classed as cell-based. As to conditions: Ovarian, 48 hours. The procedure: as §1
A further data set deals with FADU. Kind of data set: Growth inhibition, human cancer cell line FADU (SRB). Format: cell-based. The settings on record: Pharynx-sqam, 48 hours. Here is the method:
as §1

Setting [4] is: Homo sapiens, KM-20L2, Colon, read-out: GI50.
Where [5] appears, read: Homo sapiens, MCF7, Breast adn, read-out: GI50.

≈ marks a conversion by molar mass, not a printed value. Where two headings read alike, the source gives them in different places.

A word on the GI50: it is the concentration that inhibits growth by half. Broadly, the IC50 is the point on the concentration scale where inhibition reaches its midpoint.

For `COc1ccc(/C=C\c2cc(OC)c(OC)c(OC)c2)cc1OP(=O)([O-])[O-].[Na+].[Na+]` [CSA-4 prodrug], the “destruction of tumor vasculature (in words)” value in the data set on tumor vasculature was “very active in terms of tumor vasculature destruction”.

`COc1ccc(/C=C\c2cc(OC)c(OC)c(OC)c2)cc1O` [Combretastatin A-4]: the “destruction of tumor vasculature (in words)” value in the data set on tumor vasculature is given as “does not demonstrate destruction of tumor vasculature”. Besides, in the data set on purified tubulin [1], the “inhibition of tubulin polymerization (in words)” value (“inhibition” for short) is reported as “potent inhibitor of tubulin polymerization”. The “water solubility (in words)” value in [2] is listed as “poor water solubility”.

Regarding `COc1ccc2scc(OC)c2c1OC` [Compound 1, 3,4,5-trimethoxybenzo[b]thiophene], the “cytotoxicity (in words)” value in the data set with human cancer cells is reported as “potent cytotoxicity”. The GI50 in the data set with NCI 60 cell line panel was 263 nM. In addition, the “inhibition” value in the data set on purified tubulin [3] is recorded as “inhibition of tubulin polymerization”.

As to `COc1ccc2c(C(=O)c3cc(OC)c(OC)c(OC)c3)c(-c3ccc(OC)c(OP(=O)([O-])[O-])c3)sc2c1.[Na+].[Na+]` [Compound 3, 3-(3′,4′,5′-trimethoxybenzoyl)-2-(3′-sodiumphosphate-4′-methoxyphenyl)-6-methoxybenzo[b]thiophene], the GI50 in the data set on KM20L2 (Colon) is 0.22 µg/mL; with SF-295, 0.11 µg/mL; with DU-145, 0.045 µg/mL; with NCI-H460, 0.035 µg/mL; in the data set with BXPC-3, 0.35 µg/mL; with MCF-7 (Breast adn), 0.028 µg/mL. Besides, in the data set on MHEC, the “tumor growth control (FIG. 20)” value is “remarkable activity in terms of tumor growth control”. For the same molecule, the IC50 in the data set with purified tubulin [3] lay in the range of 1000 to 4000 nM.

For the molecule `COc1ccc2c(c1)CCCC2(O)c1cc(OC)c(OC)c(OC)c1` (stereo not drawn) [Compound 14A], the GI50 in the data set on KM20L2 (setting [4]) was 0.11 µg/mL (≈ 0.319 µM); in the data set with SF-268, 0.67 µg/mL (≈ 1.95 µM); with DU-145 (Homo sapiens, read-out: GI50) it was 0.38 µg/mL (≈ 1.1 µM); in the data set on NCI-H460 (Homo sapiens, read-out: GI50), 0.16 µg/mL (≈ 0.465 µM); in the data set with BXPC-3 (Homo sapiens, read-out: GI50), 0.13 µg/mL (≈ 0.377 µM); in the data set on MCF-7 (setting [5]), 0.043 µg/mL (≈ 0.125 µM). The IC50 in the data set with purified tubulin [3] is 1000 to 4000 nM.

For `CCOP(=O)(Nc1c(OC)ccc2c1CCC=C2c1cc(OC)c(OC)c(OC)c1)OCC` [Compound 16, 6-methoxy-1-(3′,4′,5′-trimethoxyphenyl)-5-diethylphosphoramidate-3,4-dihydronaphthalene], the GI50 amounted to 2.5 µg/mL (≈ 5.24 µM) in the data set on KM20L2 (setting [4]); 2.2 µg/mL (≈ 4.61 µM) in the data set on SF-295 (Homo sapiens, read-out: GI50); 2.8 µg/mL (≈ 5.86 µM) in the data set with DU-145 (Homo sapiens, read-out: GI50); 3.4 µg/mL (≈ 7.12 µM) in the data set on NCI-H460 (Homo sapiens, read-out: GI50); 2 µg/mL (≈ 4.19 µM) with BXPC-3 (Homo sapiens, read-out: GI50); 3 µg/mL (≈ 6.28 µM) with MCF-7 (setting [5]). In addition, in the data set with P388 leukemia cells, the “ED50 (effective dosage required to inhibit 50% of cell growth)” value turned out to be 20.4 µg/mL. Also, in the data set with purified tubulin [3], the concentration for half-maximal inhibition (IC50) was greater than 40000 nM.

In the case of `C#CC=CC#CC(=O)c1cc(OC)c(OC)c(OC)c1` [Compound 30, 1-(3,4,5-trimethoxybenzoyl)-(Z)-3-ene-1,5-hexadiyne], the GI50 with SF-295 (Homo sapiens, read-out: GI50) came to 1.7 µg/mL (≈ 6.29 µM); with DU-145 (Homo sapiens, read-out: GI50) it was 0.54 µg/mL (≈ 2 µM); in the data set with OVCAR-3, 0.53 µg/mL (≈ 1.96 µM); in the data set on NCI-H460 (Homo sapiens, read-out: GI50), 1.7 µg/mL (≈ 6.29 µM); with FADU, 0.95 µg/mL (≈ 3.51 µM); in the data set on BXPC-3 (Homo sapiens, read-out: GI50), 1.4 µg/mL (≈ 5.18 µM). Further, the “cytotoxicity (in words)” value in the data set with human cancer cells was “strong cytotoxicity”. Besides, the “inhibition” value in the data set on purified tubulin [3] was “excellent inhibition of tubulin polymerization”. Moreover, the IC50 in the data set with purified tubulin [3] was 2000 to 4000 nM.
